The compounds below were run against SARS-CoV-2 RdRp (nsp12-nsp7-nsp8 complex) (Severe acute respiratory syndrome coronavirus 2, UniProt P0DTD1) (assay: biochemical).

Point of comparison: Cc1cn([C@@H]2O[C@H](COP(=O)(O)OP(=O)(O)OP(=O)(O)O)C[C@H]2O)c(=O)[nH]c1=O [5-methyl-3’-dUTP], EC50 107 nM. Against it:
- O=c1ccn([C@@H]2O[C@H](COP(=O)(O)OP(=O)(O)OP(=O)(O)O)C[C@H]2O)c(=O)[nH]1 [3’-dUTP] — 7-fold higher, 751 nM
- O=c1ccn([C@@H]2O[C@H](COP(=O)(O)OP(=O)(O)OP(=O)(O)O)[C@@H](O)[C@H]2O)c(=O)[nH]1 [UTP] — 2.2-fold lower, 47.9 nM
